Source: US20230363391A1, “Biocidal Composition and Method” (ARXADA AG, priority 2020, published 2023)
Marks after values point to notes of the source that are not given here.

Experiments:
[1] = system: Pseudomonas aeruginosa, Escherichia coli, Enterobacter cloacae, Acinetobacter calcoaceticus; assay: In-can challenge test, modified ASTM D2574-97 (Table 1); assay type: cell-based
Method: (§1) Various formulations were made in accordance with the present disclosure and tested for performance. In one challenge test, the efficacy of dicyandiamide as an adjuvant for BIT was evaluated using modified ASTM D2574-97 “Standard Test Method for Resistance of Emulsion Paints in the Container to Attack by Microorganisms” with higher inoculation volumes and frequency. A standard consortium of four (4) bacterial populations: Pseudomonas aeruginosa, Escherichia coli, Enterobacter cloacae, Acinetobacter calcoaceticus was used to inoculate three (3) different samples at ten percent (10%), five percent (5%), or two and a half percent (2.5%) of the sample size. At twenty-four (24) hours and seventy-two (72) hours after each inoculation, a portion of each sample was streaked on tryptic soy agar. A dilution plate count was performed at the last seventy-two (72) hour time point.
(§2) Example data provided in Tables 1, 2 and 3 should be understood as indicating the degree of microbial growth observed for a given data point unless otherwise indicated. In particular, each plate is ranked from 0 through 5c (i.e., one of 0, 1, 2, 3, 4, 5, or 5c) according to the degree of observed microbial growth, where: a “0” ranking indicates no growth; a “1” ranking indicates one (1) through five (5) observed colony forming unit (cfu), i.e., the plate was very lightly contaminated; a “2” ranking indicates six (6) through fifteen (15) cfu, i.e., the plate was lightly contaminated; a “3” ranking indicates sixteen (16) through thirty (30) cfu, i.e., the plate was moderately contaminated; a “4” ranking indicates thirty-one (31) through forty-five (45) cfu, i.e., the plate was heavily contaminated; a “5” ranking indicates greater than (45) cfu, i.e., the plate was severely contaminated; and a “5c” ranking indicates confluent growth, i.e., the plate was very severely contaminated. Thus, for instance, Table 1, Challenge 1 at 24 h for BIT 50 ppm has a value of 5 indicating greater than forty-five (45) cfu were observed. As another example for illustration, Table 1, Challenge 1 at 24 h for dicyandiamide 5,000 ppm + BIT 50 ppm has a value of 1 indicating one (1) through five (5) cfu was observed.

[2] = system: Pseudomonas aeruginosa, Escherichia coli, Enterobacter cloacae, Acinetobacter calcoaceticus; assay: Repeat in-can challenge test, same conditions (Table 2); assay type: cell-based
Method: as §1, §2

[3] = system: bacteria, fungi, and yeast; details: background statement; cited from earlier work
microbial growth = assay: In-can challenge test of dicyandiamide as adjuvant for MIT (Table 3); assay type: cell-based; details: for Passing result of challenge test (asterisk on sample) / 1st 24, degree of microbial growth (ranking) / 1st 72, degree of microbial growth (ranking) / 2nd 72, degree of microbial growth (ranking) / 3rd 24, degree of microbial growth (ranking) / 3rd 72, degree of microbial growth (ranking): Dicyandiamide 0
From the text: However, using a combination of MIT and dicyandiamide can allow for effective microbial control at MIT concentrations as low as 20 ppm.
as §2

[4] = neutral pH; cited from earlier work
[5] = MIT - 50 30 ppm (MIT 15 ppm as active)
[6] = MIT - 50 40 ppm (MIT 20 ppm as active)
[7] = MIT - 50 50 ppm (MIT 25 ppm as active)
[8] = MIT - 50 60 ppm (MIT 30 ppm as active)
[9] = MIT - 50 70 ppm (MIT 35 ppm as active)

In the case of `O=c1[nH]sc2ccccc12` [BIT, 1,2-benzisothiazolin-3-one], the “Challenge 1 10% 24 h, degree of microbial growth (ranking)” value (shortened to “Challenge 1 10% 24 h, degree”) ([1]; BIT 50 ppm) is reported as 5 (greater than (45) cfu, i.e., the plate was severely contaminated), the “Challenge 1 10% 72 h, degree of microbial growth (ranking)” value (“Challenge 1 10% 72 h, degree” for short) ([1]; BIT 50 ppm) is reported as 2 (six (6) through fifteen (15) cfu, i.e., the plate was lightly contaminated) and the “Challenge 2 5% 72 h, degree of microbial growth (ranking)” value (“Challenge 2 5% 72 h, degree” below) ([1]; BIT 50 ppm) is reported as 5 (greater than (45) cfu, i.e., the plate was severely contaminated). The “Challenge 3 2.5% 24 h, degree of microbial growth (ranking)” value (from here on “Challenge 3 2.5% 24 h, degree”) ([1]; BIT 50 ppm) was 5c, the “Challenge 3 2.5% 72 h, dilution plate count” value (“Challenge 3 2.5% 72 h” for short) ([1]; BIT 50 ppm) was 7.8×10^6 and the “Challenge 1 10% 24 h, degree” value ([1]; BIT 100 ppm) was 5 (greater than (45) cfu, i.e., the plate was severely contaminated). For the same compound, the “Challenge 1 10% 72 h, degree” value ([1]; BIT 100 ppm) was 0, the “Challenge 2 5% 72 h, degree” value ([1]; BIT 100 ppm) was 0 and the “Challenge 3 2.5% 24 h, degree” value ([1]; BIT 100 ppm) was 5 (greater than (45) cfu, i.e., the plate was severely contaminated). For the same compound, the “Challenge 3 2.5% 72 h” value ([1]; BIT 100 ppm) was 5.0×10^1, the “Challenge 1 10% 24 h, degree” value ([2]; BIT 35 ppm) was 5c and the “Challenge 1 10% 72 h, degree” value ([2]; BIT 35 ppm) was 5c. For the same compound, the “Challenge 2 5% 72 h, degree” value ([2]; BIT 35 ppm) was 5c, the “Challenge 3 2.5% 24 h, degree” value ([2]; BIT 35 ppm) was 5c and the “Challenge 3 2.5% 72 h” value ([2]; BIT 35 ppm) was 3.0×10^6. For the same compound, the “Challenge 1 10% 24 h, degree” value ([2]; BIT 50 ppm) was 5c, the “Challenge 1 10% 72 h, degree” value ([2]; BIT 50 ppm) was 5c and the “Challenge 2 5% 72 h, degree” value ([2]; BIT 50 ppm) was 5c. The “Challenge 3 2.5% 24 h, degree” value ([2]; BIT 50 ppm) was 5c, the “Challenge 3 2.5% 72 h” value ([2]; BIT 50 ppm) was 6.6×10^6 and the “Challenge 1 10% 24 h, degree” value ([2]; BIT 65 ppm) was 5c. For the same compound, the “Challenge 1 10% 72 h, degree” value ([2]; BIT 65 ppm) was 3 (sixteen (16) through thirty (30) cfu, i.e., the plate was moderately contaminated), the “Challenge 2 5% 72 h, degree” value ([2]; BIT 65 ppm) was 5c and the “Challenge 3 2.5% 24 h, degree” value ([2]; BIT 65 ppm) was 5c. For the same compound, the “Challenge 3 2.5% 72 h” value ([2]; BIT 65 ppm) was 1.0×10^6, the “Challenge 1 10% 24 h, degree” value ([2]; BIT 75 ppm) was 5c and the “Challenge 1 10% 72 h, degree” value ([2]; BIT 75 ppm) was 0. The “Challenge 2 5% 72 h, degree” value ([2]; BIT 75 ppm) was 5 (greater than (45) cfu, i.e., the plate was severely contaminated), the “Challenge 3 2.5% 24 h, degree” value ([2]; BIT 75 ppm) was 5c and the “Challenge 3 2.5% 72 h” value ([2]; BIT 75 ppm) was 2.8×10^5. The “Challenge 1 10% 24 h, degree” value ([2]; BIT 100 ppm) was 5c, the “Challenge 1 10% 72 h, degree” value ([2]; BIT 100 ppm) was 0 and the “Challenge 2 5% 72 h, degree” value ([2]; BIT 100 ppm) was 5 (greater than (45) cfu, i.e., the plate was severely contaminated). The “Challenge 3 2.5% 24 h, degree” value ([2]; BIT 100 ppm) was 5c, the “Challenge 3 2.5% 72 h” value ([2]; BIT 100 ppm) was 1.8×10^7 and the “Amount required for a reliable and quick biocidal activity” value [3] was ≤ 500 ppm.

In the case of `N#CN=C(N)N` [Dicyandiamide, 2-cyanoguanidine], the “Challenge 1 10% 24 h, degree” value ([1]; Dicyandiamide 5,000 ppm) is reported as 5c, the “Challenge 1 10% 72 h, degree” value ([1]; Dicyandiamide 5,000 ppm) is reported as 5c and the “Challenge 2 5% 72 h, degree” value ([1]; Dicyandiamide 5,000 ppm) is reported as 5c. For the same compound, the “Challenge 3 2.5% 24 h, degree” value ([1]; Dicyandiamide 5,000 ppm) was 5c, the “Challenge 3 2.5% 72 h” value ([1]; Dicyandiamide 5,000 ppm) was 8.0×10^6 and the “Challenge 1 10% 24 h, degree” value ([1]; Dicyandiamide 10,000 ppm) was 5c. For the same compound, the “Challenge 1 10% 72 h, degree” value ([1]; Dicyandiamide 10,000 ppm) was 1 (one (1) through five (5) observed colony forming unit (cfu), i.e., the plate was very lightly contaminated), the “Challenge 2 5% 72 h, degree” value ([1]; Dicyandiamide 10,000 ppm) was 5 (greater than (45) cfu, i.e., the plate was severely contaminated) and the “Challenge 3 2.5% 24 h, degree” value ([1]; Dicyandiamide 10,000 ppm) was 5 (greater than (45) cfu, i.e., the plate was severely contaminated). For the same compound, the “Challenge 3 2.5% 72 h” value ([1]; Dicyandiamide 10,000 ppm) was 4.2×10^6, the “Efficacy in challenge test compared to the blank” value ([1]; dicyandiamide alone, not in combination with BIT, Table 1) was “no significant difference compared to the blank” and the “Challenge 1 10% 24 h, degree” value ([2]; Dicyandiamide 5,000 ppm) was 5c. For the same compound, the “Challenge 1 10% 72 h, degree” value ([2]; Dicyandiamide 5,000 ppm) was 5c, the “Challenge 2 5% 72 h, degree” value ([2]; Dicyandiamide 5,000 ppm) was 5c and the “Challenge 3 2.5% 24 h, degree” value ([2]; Dicyandiamide 5,000 ppm) was 5c. The “Challenge 3 2.5% 72 h” value ([2]; Dicyandiamide 5,000 ppm) was 2.4×10^7.

In the case of `Cn1sccc1=O` [MIT - 50, 2-methyl-4-isothiazolin-3-one], the “Passing result of challenge test (asterisk on sample)” value (microbial growth; MIT 30 ppm as active) is reported as “MIT - 50 60 ppm (30)*”, the “Passing result of challenge test (asterisk on sample)” value (microbial growth; MIT 35 ppm as active) is reported as “MIT - 50 70 ppm (35)*” and the “1st 24, degree of microbial growth (ranking)” value (“1st 24, degree” for short) (microbial growth; [5]) is reported as 5 (greater than (45) cfu, i.e., the plate was severely contaminated). The “1st 72, degree of microbial growth (ranking)” value (“1st 72, degree” for short) (microbial growth; [5]) was 5 (greater than (45) cfu, i.e., the plate was severely contaminated), the “2nd 72, degree of microbial growth (ranking)” value (“2nd 72, degree” for short) (microbial growth; [5]) was 5 (greater than (45) cfu, i.e., the plate was severely contaminated) and the “3rd 24, degree of microbial growth (ranking)” value (“3rd 24, degree” for short) (microbial growth; [5]) was 5 (greater than (45) cfu, i.e., the plate was severely contaminated). For the same compound, the “3rd 72, degree of microbial growth (ranking)” value (“3rd 72, degree” for short) (microbial growth; [5]) was 5 (greater than (45) cfu, i.e., the plate was severely contaminated), the “1st 24, degree” value (microbial growth; [6]) was 5 (greater than (45) cfu, i.e., the plate was severely contaminated) and the “1st 72, degree” value (microbial growth; [6]) was 5 (greater than (45) cfu, i.e., the plate was severely contaminated). The “2nd 72, degree” value (microbial growth; [6]) was 5 (greater than (45) cfu, i.e., the plate was severely contaminated), the “3rd 24, degree” value (microbial growth; [6]) was 5 (greater than (45) cfu, i.e., the plate was severely contaminated) and the “3rd 72, degree” value (microbial growth; [6]) was 5 (greater than (45) cfu, i.e., the plate was severely contaminated). The “1st 24, degree” value (microbial growth; [7]) was 5 (greater than (45) cfu, i.e., the plate was severely contaminated), the “1st 72, degree” value (microbial growth; [7]) was 2 (six (6) through fifteen (15) cfu, i.e., the plate was lightly contaminated) and the “2nd 72, degree” value (microbial growth; [7]) was 5 (greater than (45) cfu, i.e., the plate was severely contaminated). For the same compound, the “3rd 24, degree” value (microbial growth; [7]) was 5 (greater than (45) cfu, i.e., the plate was severely contaminated), the “3rd 72, degree” value (microbial growth; [7]) was 5 (greater than (45) cfu, i.e., the plate was severely contaminated) and the “1st 24, degree” value (microbial growth; [8]) was 5 (greater than (45) cfu, i.e., the plate was severely contaminated). The “1st 72, degree” value (microbial growth; [8]) was 0, the “2nd 72, degree” value (microbial growth; [8]) was 5 (greater than (45) cfu, i.e., the plate was severely contaminated) and the “3rd 24, degree” value (microbial growth; [8]) was 5 (greater than (45) cfu, i.e., the plate was severely contaminated). For the same compound, the “3rd 72, degree” value (microbial growth; [8]) was 0, the “1st 24, degree” value (microbial growth; [9]) was 5 (greater than (45) cfu, i.e., the plate was severely contaminated) and the “1st 72, degree” value (microbial growth; [9]) was 0. The “2nd 72, degree” value (microbial growth; [9]) was 0, the “3rd 24, degree” value (microbial growth; [9]) was 5 (greater than (45) cfu, i.e., the plate was severely contaminated) and the “3rd 72, degree” value (microbial growth; [9]) was 0. The “MIT concentration displaying passing results” value (microbial growth; MIT alone, no guanidine enhancer) was ≥ 30 ppm.

In the case of Zinc pyrithione [ZPT], the Solubility in water [4] is listed as 8 ppm.
